This note sets out measurements from PMC5386672, “Structure-guided design of purine-based probes for selective Nek2 inhibition” (Oncotarget, 2016).

SMILES strings stand for the structures.

Data set [1] concerns the target CDK2 (Homo sapiens, UniProt P24941). Nature of the data set: CDK2 kinase inhibition assay. Type of data set: biochemical. The conditions noted are these: 12.5 μM ATP.
Data set [2] concerns the target T1, Nek2 (Homo sapiens, UniProt P51955).
T1 construct: purchased Invitrogen
T1 sequence (P51955 1-445): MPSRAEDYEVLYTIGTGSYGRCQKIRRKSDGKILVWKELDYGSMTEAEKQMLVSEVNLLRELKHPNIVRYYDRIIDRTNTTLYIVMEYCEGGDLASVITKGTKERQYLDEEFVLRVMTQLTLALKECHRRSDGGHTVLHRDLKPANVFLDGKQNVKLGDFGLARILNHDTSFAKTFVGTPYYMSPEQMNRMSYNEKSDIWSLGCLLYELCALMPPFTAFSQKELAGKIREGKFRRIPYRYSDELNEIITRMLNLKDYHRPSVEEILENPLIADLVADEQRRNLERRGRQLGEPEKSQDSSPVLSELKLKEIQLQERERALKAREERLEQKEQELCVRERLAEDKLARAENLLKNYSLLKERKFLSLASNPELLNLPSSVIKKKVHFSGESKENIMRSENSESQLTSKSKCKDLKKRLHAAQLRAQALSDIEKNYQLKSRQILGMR
Nature of the data set: Nek2 Caliper kinase inhibition assay. Type of data set: biochemical. Particulars: 30 μM ATP; for inhibition at 50 µM: @ 50 μM compound.

The term IC50 denotes the concentration that inhibits the measured activity by half. Read a low IC50 as greater potency. Usually melting point stands for the temperature of the solid-liquid transition. What is called inhibition is the drop in the measured response relative to a control, in per cent. Read a low inhibition as little suppression.

On to `O=C(O)c1cccc(Nc2nc(OCC3CCCCC3)c3nc[nH]c3n2)c1` [Compound 23, 3-(6-Cyclohexylmethoxy-9H-purin-2-ylamino)benzoic acid], for which the melting point is 182 to 184 °C (dec.). For the same molecule, the IC50 in data set [1] is 990 nM. Moreover, half-maximal inhibition in data set [2] (Caliper assay) (IC50) was put at 4300 nM.

For the molecule `CC(C)CCNC(=O)Cc1cccc(Nc2nc(OCC3CCCCC3)c3nc[nH]c3n2)c1` [Compound 44, 2-[3-(6-Cyclohexylmethoxy-9H-purin-2-ylamino)phenyl]-N-(3-methylbutyl)acetamide], in data set [1], the IC50 was 3700 nM. Testing at 50 µM in data set [2] gave an inhibition of 29%.

For `O=S(=O)(Cc1cccc(Nc2nc(OCC3CCCCC3)c3nc[nH]c3n2)c1)N1CCNCC1` [Compound 50, 1-(3-(6-Cyclohexylmethoxy-9H-purin-2-ylamino)phenylmethanesulfonyl)piperazine], the melting point lay in the range of 127 to 128 °C. For the same molecule, inhibition in data set [1] was half-maximal at 450 nM (IC50). In data set [2] (Caliper assay), the IC50 came to 2600 nM.

Turning to `COc1ccc(CNS(=O)(=O)Cc2cccc(Nc3nc(OCC4CCCCC4)c4nc[nH]c4n3)c2)cc1` [Compound 52, 1-[3-(6-Cyclohexylmethoxy-9H-purin-2-ylamino)phenyl]-N-(4-methoxybenzyl)methanesulfonamide], the melting point was in the range of 118 to 119 °C. The molecule further gave an IC50 in data set [1] of 3000 nM. Further, the inhibition at 100 µM in data set [2] (@ 100 μM compound) came to 38%.

In turn, `O=C(Nc1ccc(Nc2nc(OCC3CCCCC3)c3nc[nH]c3n2)cc1)c1ccccc1` [Compound 29, N-(4-(6-(Cyclohexylmethoxy)-9H-purin-2-ylamino)phenyl)benzamide] had an IC50 in data set [1] of 2900 nM. In data set [2], this molecule registered an inhibition at 50 µM of 36%.

Take `CNC(=O)c1cccc(Nc2nc(OCC3CCCCC3)c3nc[nH]c3n2)c1` [Compound 10, 3-(6-Cyclohexylmethoxy-9H-purin-2-ylamino)-N-methylbenzamide]: the melting point lay within 252 to 254 °C. Besides, in data set [1], the IC50 came to 830 nM. The molecule also gave an IC50 in data set [2] (Caliper assay) of 15000 nM.

For the molecule `CN(C)C(=S)c1cccc(Nc2nc(OCC3CCCCC3)c3nc[nH]c3n2)c1` [Compound 12, 3-(6-Cyclohexylmethoxy-9H-purin-2-ylamino)-N,N-dimethylthiobenzamide], the melting point is 231 to 232 °C (dec.). Moreover, the IC50 in data set [1] worked out at 5700 nM. In addition, in data set [2] (Caliper assay), the IC50 amounted to 5200 nM.

Turning to `CN(C)S(=O)(=O)c1cccc(Nc2nc(OCC3CCCCC3)c3nc[nH]c3n2)c1` [Compound 14, 3-(6-Cyclohexylmethoxy-9H-purin-2-ylamino)-N,N-dimethylbenzenesulfonamide], the melting point lay within 143 to 145 °C. In addition, the IC50 in data set [1] stood at 3500 nM. For the same molecule, at 50 µM the inhibition in data set [2] was 40%.

For the molecule `Nc1cccc(Nc2nc(OCC3CCCCC3)c3[nH]cnc3n2)c1` [Compound 22, 2-(3-Aminophenyl)amino-6-cyclohexylmethoxy-purine], the melting point was 117 to 118 °C (dec.). The same molecule yielded an IC50 in data set [1] of 700 nM. The IC50 in data set [2] (Caliper assay) was determined as 5900 nM.

Turning to `CC(C)(C)C(=O)Nc1ccc(Nc2nc(OCC3CCCCC3)c3nc[nH]c3n2)cc1` [Compound 28, N-(4-(6-(Cyclohexylmethoxy)-9H-purin-2-ylamino)phenyl)pivalamide], the IC50 in data set [1] amounted to 9700 nM; in data set [2] (Caliper assay), 24000 nM.

The molecule `CN(C)CCNC(=O)Cc1cccc(Nc2nc(OCC3CCCCC3)c3nc[nH]c3n2)c1` [Compound 43, 2-[3-(6-Cyclohexylmethoxy-9H-purin-2-ylamino)phenyl]-N-(2-dimethylaminoethyl)acetamide] registered a melting point of 161 to 162 °C. Besides, in data set [1], the IC50 came to 590 nM. The IC50 in data set [2] (Caliper assay) came out at 1000 nM.

With `NS(=O)(=O)c1ccc(Nc2nc(OCC3CCCCC3)c3nc[nH]c3n2)cc1` [Compound 6], half-maximal inhibition in data set [2] (Caliper assay) (IC50) was put at 12000 nM.

For `O=C(NCCN1CCOCC1)Nc1ccc(Nc2nc(OCC3CCCCC3)c3nc[nH]c3n2)cc1` [Compound 16, 1-(4-(6-(Cyclohexylmethoxy)-9H-purin-2-ylamino)phenyl)-3-(2-morpholinoethyl)urea], the melting point lay in the range of 161 to 163 °C. This molecule also returned an IC50 in data set [1] of 1100 nM. The molecule further showed an IC50 in data set [2] (Caliper assay) of 2200 nM.

For `O=C(Cc1cccc(Nc2nc(OCC3CCCCC3)c3nc[nH]c3n2)c1)NCCCc1ccccc1` [Compound 47, 2-[3-(6-Cyclohexylmethoxy-9H-purin-2-ylamino)phenyl]-N-(3-phenylpropyl)acetamide], the melting point was 154 to 155 °C. This molecule also gave an IC50 in data set [1] of 10000 nM. Also, the “Nek2 IC50” value in data set [2] (Caliper assay) is given as “Inactive”.

Take `CN(C)CCCNS(=O)(=O)Cc1cccc(Nc2nc(OCC3CCCCC3)c3nc[nH]c3n2)c1` [Compound 51, 1-[3-(6-Cyclohexylmethoxy-9H-purin-2-ylamino)phenyl]-N-(3-dimethylaminopropyl)methanesulfonamide]: the melting point is 167 to 168 °C. Also, in data set [1], the concentration for half-maximal inhibition (IC50) amounted to 530 nM. The IC50 in data set [2] (Caliper assay) was determined as 1420 nM.

Regarding `CC(=O)Nc1cccc(Nc2nc(OCC3CCCCC3)c3nc[nH]c3n2)c1` [Compound 27, N-(3-(6-(Cyclohexylmethoxy)-9H-purin-2-ylamino)phenyl)acetamide], the figures for the IC50 in data set [1] and in data set [2] (Caliper assay) were 880 nM and 8300 nM, respectively.

`O=C(Cc1cccc(Nc2nc(OCC3CCCCC3)c3nc[nH]c3n2)c1)NC1CCCCC1` [Compound 36]: the melting point fell in the range of 226 to 227 °C. This molecule also gave an IC50 in data set [1] of 2100 nM. Further, the IC50 in data set [2] (Caliper assay) was determined as 8400 nM.

As for `CN(C)CCCCNC(=O)c1cccc(Nc2nc(OCC3CCCCC3)c3nc[nH]c3n2)c1` [Compound 33, 3-(6-Cyclohexylmethoxy-9H-purin-2-ylamino)-N-(4-dimethylaminobutyl)benzamide], the melting point fell in the range of 125 to 127 °C. The molecule also yielded an IC50 in data set [1] of 730 nM. Further, inhibition in data set [2] (Caliper assay) was half-maximal at 3800 nM (IC50).

`CN1CCN(CCCNC(=O)Cc2cccc(Nc3nc(OCC4CCCCC4)c4nc[nH]c4n3)c2)CC1` [Compound 46, 2-[3-(6-Cyclohexylmethoxy-9H-purin-2-ylamino)phenyl]-N-[3-(4-methylpiperazin-1-yl)propyl]acetamide]: the melting point was 157 to 158 °C. The molecule further yielded an IC50 in data set [1] of 2400 nM. For the same molecule, in data set [2] (Caliper assay), the IC50 came out at 3600 nM.

For `O=C(NCCN1CCCCC1)Nc1ccc(Nc2ncc3nc[nH]c3n2)cc1` [Compound 65, 1-(4-((9H-purin-2-yl)amino)phenyl)-3-(2-(piperidin-1-yl)ethyl)urea], the melting point lay within 96 to 98 °C. In addition, the inhibition at 100 µM in data set [1] (@ 100 μM compound) was determined as 30%. Also, the IC50 in data set [2] (Caliper assay) came out at 4500 nM.

As to `c1ccc(Nc2nc(OCC3CCCCC3)c3nc[nH]c3n2)cc1` [2-aminophenyl-6-(cyclohexylmethoxy)-9H-purine], half-maximal inhibition in data set [2] (Caliper assay) (IC50) was put at 22000 nM.

As for `CC(C)CNC(=O)Cc1cccc(Nc2nc(OCC3CCCCC3)c3nc[nH]c3n2)c1` [Compound 34, 2-[3-(6-Cyclohexylmethoxy-9H-purin-2-anilino)]-N-isobutylacetamide], the melting point lay in the range of 144 to 145 °C. For the same molecule, the IC50 in data set [1] was determined as 940 nM. Besides, the inhibition at 50 µM in data set [2] stood at 79%.

For the molecule `CN(C)CCCNC(=O)Nc1ccc(Nc2nc(OCC3CCCCC3)c3nc[nH]c3n2)cc1` [Compound 18, 1-(4-(6-(Cyclohexylmethoxy)-9H-purin-2-ylamino)phenyl)-3-(3-(dimethylamino)propyl)urea], the melting point was 110 to 112 °C. The same molecule came in with an IC50 in data set [1] of 720 nM. The molecule also had an IC50 in data set [2] (Caliper assay) of 1200 nM.

In the case of `NC(=S)c1cccc(Nc2nc(OCC3CCCCC3)c3nc[nH]c3n2)c1` [Compound 13, 3-(6-Cyclohexylmethoxy-9H-purin-2-ylamino)thiobenzamide], the melting point was 148 to 149 °C (dec.). In data set [1], half-maximal inhibition (IC50) required 330 nM. In data set [2], this molecule showed an inhibition at 50 µM of 46%.

`CCOc1nc(Nc2cccc(CC(=O)NCCCN(C)C)c2)nc2[nH]cnc12` [Compound 59, N-(3-Dimethylaminopropyl)-2-[3-(6-ethoxy-9H-purin-2-ylamino)phenyl]acetamide]: the melting point was in the range of 178 to 179 °C.

For the molecule `CN(C)S(=O)(=O)Cc1cccc(Nc2nc(OCC3CCCCC3)c3nc[nH]c3n2)c1` [Compound 48, [3-(6-Cyclohexylmethoxy-9H-purin-2-ylamino)-phenyl]-N,N-dimethylmethanesulfonamide], the IC50 came to 770 nM in data set [1] and 830 nM in data set [2] (Caliper assay).

The molecule `CC(C)N(C(=O)Cc1cccc(Nc2nc(OCC3CCCCC3)c3nc[nH]c3n2)c1)C(C)C` [Compound 38] registered a melting point of 126 to 127 °C. In data set [1], this molecule had an IC50 of 3200 nM. Moreover, the IC50 in data set [2] (Caliper assay) stood at 21000 nM.

In the case of `CCCNC(=O)Cc1cccc(Nc2nc(OCC3CCCCC3)c3nc[nH]c3n2)c1` [Compound 39], the melting point is 141 to 142 °C (dec.). Further, the IC50 in data set [1] turned out to be 740 nM. The inhibition at 50 µM in data set [2] was found to be 82%.

For `CCOc1nc(Nc2cccc(CC(=O)NCCCN(C)C)c2)nc2[nH]cnc12` [Compound 7], the IC50 in data set [1] stood at 5600 nM; in data set [2] (Caliper assay) it was 890 nM.

On to `O=S(=O)(Cc1cccc(Nc2nc(OCC3CCCCC3)c3nc[nH]c3n2)c1)N1CCCCC1` [Compound 49, 1-(3-(6-Cyclohexylmethoxy-9H-purin-2-ylamino)phenylmethanesulfonyl)piperidine], for which, in data set [1], the midpoint of inhibition, the IC50, lay at 1600 nM. In data set [2], this molecule displayed an inhibition at 50 µM of 53%.

Take `O=C(NCCN1CCCCC1)Nc1ccc(Nc2nc(OCC3CCCCC3)c3nc[nH]c3n2)cc1` [Compound 17, 1-(4-(6-(Cyclohexylmethoxy)-9H-purin-2-ylamino)phenyl)-3-(2-(piperidin-1-yl)ethyl)urea]: the IC50 worked out at 860 nM in data set [1] and 1100 nM in data set [2] (Caliper assay).
